Reference: patent US20150126534A1, “ENZYME AND RECEPTOR MODULATION” (Chroma Therapeutics Ltd, priority 2005, published 2015)
Where a name gives a salt, the structure may show the parent alone. Read-outs that look alike come from different tables or passages of the source.

Assays:
[1] = test system: U937 cells (monocytic cell line); assay: Cell proliferation inhibition assay (WST-1), U937; assay type: cell-based; conditions: for IC50: Homo sapiens
Protocol: (§1) Following 24 h of growth cells were treated with compound. Plates were then re-incubated for a further 72-96 h before a WST-1 cell viability assay was conducted according to the suppliers (Roche Applied Science) instructions.
(§2) Data were expressed as a percentage inhibition of the control, measured in the absence of inhibitor, as follows: —
(§3) where S^i is the signal in the presence of inhibitor and S^o is the signal in the presence of DMSO.
(§4) Dose response curves were generated from 8 concentrations (top final concentration 10 μM, with 3-fold dilutions), using 6 replicates.

[2] = test system: HCT116 (non-monocytic cell line); assay: Cell proliferation inhibition assay (WST-1), HCT116; assay type: cell-based; conditions: for Ratio IC50 cell/enzyme: HCT116 cell proliferation IC50 / DHFR enzyme IC50; for IC50: Homo sapiens
Protocol: as §1, §2, §3, §4

human aurora kinase A = molecular target: T1, human aurora kinase A (Homo sapiens, UniProt O14965); assay: Aurora kinase A inhibitory activity assay (Flashplate, 33P-ATP); assay type: biochemical; conditions: 10 μM ATP; read-out: Enzyme inhibition IC50 nM (Aurora kinase A)
T1 construct: recombinant, full length human aurora kinase A, N-terminally fused to GST; GST (N); purchased ProQuinase (so in the source); host or cells: baculovirus / Sf21 insect cells
T1 sequence (O14965 1-403): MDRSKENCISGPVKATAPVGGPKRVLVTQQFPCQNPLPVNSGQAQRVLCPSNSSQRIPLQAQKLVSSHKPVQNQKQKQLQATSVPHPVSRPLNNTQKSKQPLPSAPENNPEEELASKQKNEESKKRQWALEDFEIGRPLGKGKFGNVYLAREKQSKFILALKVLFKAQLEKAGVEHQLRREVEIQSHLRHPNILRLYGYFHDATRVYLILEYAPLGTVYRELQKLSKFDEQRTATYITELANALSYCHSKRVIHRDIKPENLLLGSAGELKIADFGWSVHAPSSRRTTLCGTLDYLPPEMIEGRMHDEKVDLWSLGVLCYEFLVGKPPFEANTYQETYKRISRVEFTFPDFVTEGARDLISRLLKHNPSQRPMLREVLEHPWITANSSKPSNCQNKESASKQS
Protocol: The ability of compounds to inhibit aurora kinase A activity was measured using a microplate assay. In brief, 96-well Flashplates® (PerkinElmer Life Sciences) were pre-coated with myelin basic protein (MBP). MBP (100 ul of […] in PBS) was incubated at 37° C. for 1 h, followed by overnight incubation at 4° C. Plates were then washed with PBS and allowed to air dry.
Wells lacking inhibitor were used as vehicle controls and wells containing no enzyme were used to measure the ‘background’ signal. Plates were incubated overnight at 30° C. After incubation the contents of the wells were removed and the plates washed three times with PBS containing 10 mM tetra sodium pyrophosphate prior to scintillation counting using a Wallac MicroBeta TriLux.
Dose response curves were generated from 10 concentrations (top final concentration 10 μM, with 3-fold dilutions), using triplicate wells.
[…] values were determined by non-linear regression analysis, after fitting the data point results to the equation for sigmoidal dose response with variable slope (% activity against log concentration of compound), using Xlf it software.

[3] = test system: TNFα production in human whole blood; assay: LPS-stimulation of human whole blood, TNF-α ELISA; assay type: cell-based; conditions: for IC50: Homo sapiens, 6 h; for Ratio IC50 WB/enzyme: whole blood TNFα IC50 / P38 MAP kinase IC50
Protocol: Whole blood was taken by venous puncture using heparinised vacutainers (Becton Dickinson) and diluted in an equal volume of RPMI1640 tissue culture media. 100 μl was plated in V-bottomed 96 well tissue culture plates. Inhibitor was added in 100 μl of RPMI1640 media, and 2 h later the blood was stimulated with LPS (E coli strain 005:B5, Sigma) at a final concentration of 100 ng/ml and incubated at 37° C. in 5% CO2 for 6 h. TNF-α levels were measured from cell-free supernatants by sandwich ELISA (R&D Systems #QTA00B).

p38 MAP kinase α = molecular target: T2, p38 MAP kinase α (Homo sapiens, UniProt Q16539); assay: P38 MAP kinase α inhibitory activity assay; assay type: biochemical; conditions: ATP 90 μM; read-out: Enzyme inhibition IC50 nM (P38 MAP kinase)
T2 construct: full length human enzyme expressed in E coli as an N-terminally GST-tagged protein; GST (N); purchased Upstate (Dundee UK), assay run by the vendor; host or cells: E. coli
T2 sequence (Q16539 whole entry): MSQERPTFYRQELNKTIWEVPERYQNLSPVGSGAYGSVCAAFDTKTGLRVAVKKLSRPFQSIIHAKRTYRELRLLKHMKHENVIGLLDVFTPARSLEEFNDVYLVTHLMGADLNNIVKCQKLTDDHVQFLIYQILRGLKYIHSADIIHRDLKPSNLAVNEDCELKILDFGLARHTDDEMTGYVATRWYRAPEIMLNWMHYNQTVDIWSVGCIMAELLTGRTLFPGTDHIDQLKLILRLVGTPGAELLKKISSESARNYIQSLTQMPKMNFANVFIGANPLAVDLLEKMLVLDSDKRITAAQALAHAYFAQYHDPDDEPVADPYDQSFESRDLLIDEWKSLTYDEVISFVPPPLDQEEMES
Protocol: The ability of compounds to inhibit p38 MAP kinase α (full length human enzyme expressed in E coli as an N-terminally GST-tagged protein) activity was measured in an assay performed by Upstate (Dundee UK). […] The reaction was initiated by the addition of the MgATP mix. After incubation for 40 minutes at room temperature, the reaction was stopped by the addition of 5 μl of a 3% phosphoric acid solution. 10 μl of the reaction was then spotted onto a P30 filtermat and washed three times for 5 minutes in 75 mM phosphoric acid and once in methanol, prior to drying and scintillation counting.
Dose response curves were generated from a ½ log dilution series of a stock inhibitor solution in DMSO. Nine dilutions steps were made from a top, final concentration of 10 μM, and a ‘no compound’ blank was included. Samples were run in duplicate. Data from scintillation counts were collected and subjected to free-fit analysis by Graphpad Prism software. From the curve generated, the concentration giving 50% inhibition was determined.

PI 3-kinase γ = molecular target: T3, PI 3-kinase γ (Homo sapiens, UniProt P48736); assay: PI 3-kinase γ inhibition assay (HTRF); assay type: biochemical; conditions: 100 μM MgATP; read-out: Enzyme inhibition IC50 nM (PI3-Kinase)
T3 construct: recombinant N-terminally His6-tagged, full length human enzyme; His6 (N); purchased Upstate (Dundee, UK), assay run by the vendor; host or cells: baculovirus / Sf21 insect cells
T3 sequence (P48736 whole entry): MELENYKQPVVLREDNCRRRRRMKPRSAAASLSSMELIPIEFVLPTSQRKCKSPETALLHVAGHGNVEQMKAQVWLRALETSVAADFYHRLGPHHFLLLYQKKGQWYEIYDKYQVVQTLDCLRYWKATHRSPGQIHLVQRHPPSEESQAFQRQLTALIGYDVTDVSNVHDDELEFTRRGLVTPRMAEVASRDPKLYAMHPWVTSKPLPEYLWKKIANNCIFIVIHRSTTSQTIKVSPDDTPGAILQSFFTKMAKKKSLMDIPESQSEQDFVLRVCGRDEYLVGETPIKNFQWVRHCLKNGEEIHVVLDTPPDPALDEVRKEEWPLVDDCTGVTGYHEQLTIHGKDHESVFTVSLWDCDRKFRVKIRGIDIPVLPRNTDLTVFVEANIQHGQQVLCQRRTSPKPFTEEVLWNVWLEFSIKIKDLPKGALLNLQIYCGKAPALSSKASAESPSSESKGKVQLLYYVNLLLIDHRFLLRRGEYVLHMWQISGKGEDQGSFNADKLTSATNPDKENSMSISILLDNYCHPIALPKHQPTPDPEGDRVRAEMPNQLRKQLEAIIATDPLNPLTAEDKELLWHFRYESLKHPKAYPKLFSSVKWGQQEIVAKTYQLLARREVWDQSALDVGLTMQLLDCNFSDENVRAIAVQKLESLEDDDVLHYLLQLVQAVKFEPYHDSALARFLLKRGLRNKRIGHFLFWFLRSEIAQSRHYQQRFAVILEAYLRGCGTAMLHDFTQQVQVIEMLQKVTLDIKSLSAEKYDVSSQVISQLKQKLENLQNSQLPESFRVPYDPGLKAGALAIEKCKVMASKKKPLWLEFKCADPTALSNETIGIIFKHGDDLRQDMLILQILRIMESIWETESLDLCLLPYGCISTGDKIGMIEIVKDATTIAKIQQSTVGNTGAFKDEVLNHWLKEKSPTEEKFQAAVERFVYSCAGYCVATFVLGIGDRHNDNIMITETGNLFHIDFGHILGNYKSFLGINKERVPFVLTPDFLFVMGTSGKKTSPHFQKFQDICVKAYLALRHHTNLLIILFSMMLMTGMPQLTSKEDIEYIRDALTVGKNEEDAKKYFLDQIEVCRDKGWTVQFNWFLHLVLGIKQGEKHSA
Description: The measurement of PI 3-kinase γ activity is dependent upon the specific and high affinity binding of the GRP1 pleckstrin homology (PH) domain to PIP3, the product of PI 3-kinase activity. A complex is formed between europium-labelled anti-GST monoclonal antibody, a GST-tagged GRP1 PH domain, biotinylated PIP3 and streptavidin-allophycocyanin (APC). This complex generates a stable time-resolved fluorescence resonance energy transfer (FRET) signal, which is diminished by competition of PIP3, generated in the PI 3-kinase assay, with the biotinylated PIPS.
The reaction was initiated by the addition of the MgATP mix. After incubation for 30 minutes at room temperature, the reaction was stopped by the addition of 5 μl of stop solution containing EDTA and biotinylated phosphatidylinositol-3,4,5-trisphosphate. Finally, 5 μl of detection buffer was added, which contained europium-labelled anti-GST monoclonal antibody, GST-tagged GRP1 PH domain and streptavidin-APC. The plate was then read in time-resolved fluorescence mode and the homogenous time-resolved fluorescence (HTRF) signal was determined according to the formula HTRF=10000×(Em665 nm/Em620 nm).
Duplicate data points were generated from a ½ log dilution series of a stock solution of compound in DMSO. Nine dilutions steps were made from a top final concentration of 10 μM, and a ‘no compound’ blank was included. HTRF ratio data were transformed into % activity of controls and analysed with a four parameter sigmoidal dose-response (variable slope) application. The concentration giving 50% inhibition (1050) was determined.

[4] = U-937, read-out: Cell proliferation IC50 nM (U937 cells)
[5] = U937 cell proliferation IC50 / DHFR enzyme IC50
[6] = U-937, U937 monocytic cell line, read-out: Cell proliferation IC50 nM (U937 cells)
[7] = HCT-116, HCT116 non-monocytic cell line, read-out: Cell proliferation IC50 nM (HCT116)
[8] = U937 cell proliferation IC50 / Aurora kinase A IC50
[9] = LPS 100 ng/ml, read-out: Inhibition of TNFα production in human whole blood IC50

COc1cc(NCc2cnc3nc(N)nc(N)c3c2C)cc(OC)c1OC [Compound 2 G = N, 5-Methyl-6-((3,4,5-trimethoxyphenylamino)methyl)pyrido[2,3-d]pyrimidine-2,4-diamine, reference compound]
IC50 [1, 4]: 2200 nM | Ratio IC50 cell/enzyme [1, 5]: 220 | selectivity between a monocytic and non-monocytic cell line (cell proliferation) ([1]; U937 versus HCT116): no selectivity | Ratio IC50 cell/enzyme [2]: 170 | IC50 ([2]; HCT-116, read-out: Cell proliferation IC50 nM (HCT116)): 1700 nM

Cc1c(CNc2ccc(OCC[C@H](N)C(=O)OC3CCCC3)cc2)cnc2nc(N)nc(N)c12 [Compound 3, (S)-2-Amino-4-{4-[(2,4-diamino-5-methyl-pyrido[2,3-d]pyrimidin-6-ylmethyl)-amino]-phenoxy}-butyric acid cyclopentyl ester]
IC50 [1, 6]: 5100 nM | Ratio IC50 cell/enzyme [1, 5]: 1.9 | Ratio IC50 cell/enzyme [2]: 1.4 | IC50 [2, 7]: 7300 nM

Cc1c(CNc2ccc(C(=O)N[C@@H](CC(C)C)C(=O)OC3CCCC3)cc2)cnc2nc(N)nc(N)c12 [Compound 6, (S)-2-{4-[(2,4-Diamino-5-methyl-pyrido[2,3-d]pyrimidin-6-ylmethyl)-amino]-benzoylamino}-4-methyl-pentanoic acid cyclopentyl ester]
IC50 [1, 6]: 23 nM | Ratio IC50 cell/enzyme [1, 5]: 0.013 | fold more potent than the unmodified analogue (2 G=N) ([1]; U937 cells): 100 fold | fold more potent than the unmodified analogue (2 G=N) ([2]; HCT116): 15 fold | Ratio IC50 cell/enzyme [2]: 0.04 | IC50 [2, 7]: 110 nM

O=C(CCCCCCC(=O)Nc1ccccc1)NO [Compound 7, Suberoylanilide hydroxamic acid, reference compound]
IC50 [1, 4]: 400 nM

COc1cc2nccc(Oc3ccc(NC(=O)c4ccccc4)cc3)c2cc1OC [Compound 11, N-{4-(7-methoxy-6-methoxy-quinoline-4-yloxy)-phenyl}-benzamide, reference compound]
IC50 (human aurora kinase A): 350 nM | IC50 [1, 6]: 430 nM | Ratio IC50 cell/enzyme [1, 8]: 1.3

COc1cc2c(Oc3ccc(NC(=O)c4ccccc4)cc3)ccnc2cc1OCC[C@H](N)C(=O)OC1CCCC1 [Compound 12, (S)-2-amino-4-[4-(4-benzoylamino-phenoxy)-6-methoxy-quinolin-7-yloxy]-butyric acid cyclopentyl ester]
IC50 (human aurora kinase A): 2300 nM | IC50 [1, 6]: 3.5 nM | Ratio IC50 cell/enzyme [1, 8]: 0.0015

COc1cc2c(Oc3ccc(NC(=O)c4ccccc4)cc3)ccnc2cc1OCC[C@H](N)C(=O)O [Compound 13]
IC50 (human aurora kinase A): 500 nM | IC50 [1, 6]: > 5000 nM

COc1cc2c(Oc3ccc(NC(=O)c4ccccc4)cc3)ccnc2cc1OCC[C@H](N)C(=O)OC(C)(C)C [Compound 14, (S)-2-Amino-4-[4-(4-benzoylamino-phenoxy)-6-methoxy-quinolin-7-yloxy]-butyric acid tert-butyl ester]
IC50 (human aurora kinase A): 3000 nM | IC50 [1, 6]: 75 nM | fold less active in the cell assay than cyclopentyl ester (Compound 12) ([1]; U937 cell proliferation): ~20 fold | Ratio IC50 cell/enzyme [1, 8]: 0.025

Nc1c(C(=O)c2ccc(F)cc2F)ccc(=O)n1-c1c(F)cccc1F [Compound 15, 6-Amino-5-(2,4-difluoro-benzoyl)-1-(2,6-difluoro-phenyl)-1H-pyridin-2-one, reference compound]
IC50 [3, 9]: 300 nM | Ratio IC50 WB/enzyme [3]: 6 | IC50 (p38 MAP kinase α): 50 nM

Nc1c(C(=O)c2ccc(F)cc2F)ccc(=O)n1-c1c(F)cc(OCC[C@H](N)C(=O)OC2CCCC2)cc1F [Compound 16, cyclopentyl (S)-2-Amino-4-(4-[6-amino-5-(2,4-difluorobenzoyl)-2-oxo-2H-pyridin-1-yl]-3,5-difluorophenoxy)butanoate trifluoroacetate]
IC50 ([3]; read-out: Inhibition of TNFα production in human whole blood IC50 nM): 20 nM | Ratio IC50 WB/enzyme [3]: 0.8 | IC50 (p38 MAP kinase α): 25 nM

Nc1c(C(=O)c2ccc(F)cc2F)ccc(=O)n1-c1c(F)cc(OCC[C@H](N)C(=O)O)cc1F [Compound 17, (S)-2-Amino-4-(4-[6-amino-5-(2,4-difluorobenzoyl)-2-oxo-2H-pyridin-1-yl]-3,5-difluorophenoxy)butanoic acid]
IC50 (p38 MAP kinase α): 30 nM

CC(C)(C)OC(=O)[C@@H](N)CCOc1cc(F)c(-n2c(N)c(C(=O)c3ccc(F)cc3F)ccc2=O)c(F)c1 [Compound 18, (S)-2-Amino-4-{4-[6-amino-5-(2,4-difluoro-benzoyl)-2-oxo-2H-pyridin-1-yl]-3,5-difluoro-phenoxy}-butyric acid tert-butyl ester]
IC50 [3, 9]: 750 nM | Ratio IC50 WB/enzyme [3]: 18 | IC50 (p38 MAP kinase α): 40 nM

Cc1nc(NC(=O)CC[C@H](N)C(=O)O)sc1-c1ccc(Cl)c(S(C)(=O)=O)c1 [Compound 22, (S)-2-Amino-4-[5-(4-chloro-3-methanesulfonyl-phenyl)-4-methyl-thiazol-2-ylcarbamoyl]-butyric acid]
IC50 (PI 3-kinase γ): 3600 nM

COc1cc2c(Oc3ccc(NC(=O)c4ccccc4)cc3)ccnc2cc1OCC[C@H](NC1CCCCC1)C(=O)OC1CCCC1 [Compound 25, (S)-4-[4-(4-Benzoylamino-phenoxy)-6-methoxy-quinolin-7-yloxy]-2-cyclohexylamino-butyric acid cyclopentyl ester]
IC50 [1, 6]: 1900 nM | IC50 [2, 7]: 6100 nM
